This is an account of results in ChEMBL document CHEMBL4177617 (Bioorg Med Chem Lett, 2017).

Bounds are passed on as bounds.

The test system of the first assay is Clostridium botulinum. Nature of the assay: Inhibition of protease activity of Clostridium botulinum BoNT/A light chain using 66-mer SNAP-25 as substrate by LC-MS analysis relative to control. The settings on record: concentration not given here.
A word on the inhibition: it is the drop in the measured response relative to a control, in per cent. The low end stands for a response near the control, the high end for a response far below the control. `O=C(/C=C/c1ccc(O)c(O)c1)O[C@@H](C(=O)O)[C@@H](OC(=O)/C=C/c1ccc(O)c(O)c1)C(=O)O` showed an inhibition of 64%. Turning to `O=C(/C=C/c1ccc(O)c(O)c1)Oc1ccccc1OC(=O)/C=C/c1ccc(O)c(O)c1`, the inhibition worked out at 96%. With `O=C(/C=C/c1ccc(O)c(O)c1)OC[C@@H]1C[C@@H]1COC(=O)/C=C/c1ccc(O)c(O)c1`, the inhibition was 75%.

System in a further assay: not listed separately
Nature of the assay: Inhibition of protease activity of Clostridium botulinum BoNT/A light chain using 66-mer SNAP-25 as substrate by LC-MS analysis.
Conditions: not given; call rule not given here
As a reminder, the IC50 is the concentration needed to halve the response being measured. As to `CC(=O)Oc1ccc(/C=C/C(=O)Oc2ccccc2OC(=O)/C=C/c2ccc(OC(C)=O)c(OC(C)=O)c2)cc1OC(C)=O`, the 50% inhibitory concentration (IC50) entry is given as “Not Active”. For `O=C(/C=C/c1ccc([N+](=O)[O-])cc1)Oc1ccccc1OC(=O)/C=C/c1ccc([N+](=O)[O-])cc1`, the IC50 entry is recorded as “Not Active”. In the case of `O=Cc1ccc(/C=C/C(=O)Oc2ccccc2OC(=O)/C=C/c2ccc(C=O)cc2)cc1`, the concentration for half-maximal inhibition (IC50) entry is “Not Active”. As for `NCCc1ccc(OC(=O)c2ccc(O)c(O)c2)c(OC(=O)c2ccc(O)c(O)c2)c1`, the 50% inhibitory concentration (IC50) result is reported as “Not Active”. On the same count and under the same terms, to `O=C(/C=C/c1ccc(CO)cc1)Oc1ccccc1OC(=O)/C=C/c1ccc(CO)cc1` belongs “Not Active”.

The same assay, now with this note: read-out: IC50.
Take `O=C(/C=C/c1ccc(O)c(O)c1)OCC#CCOC(=O)/C=C/c1ccc(O)c(O)c1`: the IC50 turned out to be 410 nM. The same measure, in the same setting: the value for `O=C(/C=C/c1ccc(O)c(O)c1)O[C@H]1CCC[C@H]1OC(=O)/C=C/c1ccc(O)c(O)c1` was 2400 nM. Regarding `O=C(/C=C/c1ccc(O)c(O)c1)OCc1ccccc1COC(=O)/C=C/c1ccc(O)c(O)c1`, the IC50 came out at 1100 nM. On to `O=C(/C=C/c1ccc(O)c(O)c1)Oc1cccc(OC(=O)/C=C/c2ccc(O)c(O)c2)c1`, for which the IC50 came to 560 nM. With `O=C(Oc1ccccc1OC(=O)c1ccc(O)c(O)c1)c1ccc(O)c(O)c1`, the IC50 was greater than 20000 nM.

Consider `CC(C)(C)C(COC(=O)/C=C/c1ccc(O)c(O)c1)COC(=O)/C=C/c1ccc(O)c(O)c1`, for which the IC50 is 130 nM. For the molecule `O=C(/C=C/c1ccc(O)c(O)c1)Oc1cc2c(cc1OC(=O)/C=C/c1ccc(O)c(O)c1)OCCO2`, the 50% inhibitory concentration (IC50) came out at 300 nM. Still for that read-out and setting: to `O=C(/C=C/c1ccc(O)c(O)c1)OCc1ccccc1OC(=O)/C=C/c1ccc(O)c(O)c1` belongs 140 nM.

For `CC(C)OC(=O)[C@H](OC(=O)/C=C/c1ccc(O)c(O)c1)[C@@H](OC(=O)/C=C/c1ccc(O)c(O)c1)C(=O)OC(C)C`, the concentration for half-maximal inhibition (IC50) worked out at 2700 nM. Still for that read-out and setting: the value for `O=C(/C=C/c1ccc(O)c(O)c1)Oc1ccccc1OC(=O)/C=C/c1ccc(O)c(O)c1` was 490 nM.

Regarding `O=C(Oc1ccccc1OC(=O)c1ccc(O)cc1)c1ccc(O)cc1`, the IC50 was determined as 9500 nM.

In the case of `O=C(/C=C/c1ccc(O)c(O)c1)O[C@H]1CCCC[C@H]1OC(=O)/C=C/c1ccc(O)c(O)c1`, the concentration for half-maximal inhibition (IC50) worked out at 3200 nM. On the same count and under the same terms, the value for `O=C(/C=C/c1ccc(O)c(O)c1)O[C@@H]1CCCCC[C@H]1OC(=O)/C=C/c1ccc(O)c(O)c1` was 3200 nM; that for `O=C(/C=C/c1ccc(O)c(O)c1)OC[C@@H]1C[C@@H]1COC(=O)/C=C/c1ccc(O)c(O)c1` was 130 nM; that for `O=C(/C=C/c1cccc(O)c1)Oc1ccccc1OC(=O)/C=C/c1cccc(O)c1` was greater than 20000 nM.

Take `O=C(/C=C/c1ccc(O)c(O)c1)OC/C=C\COC(=O)/C=C/c1ccc(O)c(O)c1`: the IC50 came out at 450 nM. On the same count and under the same terms, the value for `COC(=O)c1ccc(OC(=O)/C=C/c2ccc(O)c(O)c2)c(OC(=O)/C=C/c2ccc(O)c(O)c2)c1` was 390 nM; that for `O=C(/C=C/c1ccc(O)c(O)c1)Oc1cccc2cccc(OC(=O)/C=C/c3ccc(O)c(O)c3)c12` was 50 nM; that for `O=C(/C=C/c1ccc(O)c(O)c1)OC[C@H]1CC[C@H]1COC(=O)/C=C/c1ccc(O)c(O)c1` was 1700 nM. With `O=C(/C=C/c1ccc(O)c(O)c1)Nc1ccccc1NC(=O)/C=C/c1ccc(O)c(O)c1`, the IC50 worked out at 3300 nM.
